The target in one assay is T1, BRD4 (BDI_K57-E168) (Homo sapiens, UniProt O60885).
T1 construct: BD1: amino acids K57-E168; made in house
Put plainly: TR-FRET bromodomain binding assay, BRD4 first bromodomain. The settings on record: His-tagged BD1, Alexa647-labeled probe 100 nM; Ki calculated from IC50. In a few lines:
(§1)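 Affinity for each isolated His-tagged domain was measured as competition with a fluorescent Alexa647 BET-inhibitor probe in a TR-FRET format at pH 6.0, 1 h room temperature incubation. Ki values were calculated from fitted IC50s, probe Kd and probe level (100 nM BDI, 30 nM BDII).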

A further assay addresses T2, BRD4 (BDII_E352-M457) (Homo sapiens, UniProt O60885).
T2 construct: made in house
Put plainly: TR-FRET bromodomain binding assay, BRD4 second bromodomain. The settings on record: His-tagged BD2, Alexa647-labeled probe 30 nM; Ki calculated from IC50. In a few lines:
as §1

In general, Ki refers to a measure of affinity in units of concentration, obtained from inhibition or displacement.

Turning to `Cc1[nH]c(-c2ccc(-c3cccc(C(=O)N(C)C)c3)cc2)cc1C(N)=O` [Example 104, 5-[3′-(dimethylcarbamoyl)biphenyl-4-yl]-2-methyl-1H-pyrrole-3-carboxamide], the inhibition constant (Ki) on BRD4 (BDI_K57-E168) was 2380 nM; on BRD4 (BDII_E352-M457) it was 2.34 µM.

For the compound `Cc1[nH]c(-c2ccc(-c3cccc(N4CCOCC4)c3)cc2)cc1C(N)=O` [Example 105, 2-methyl-5-[3′-(morpholin-4-yl)biphenyl-4-yl]-1H-pyrrole-3-carboxamide], the Ki at BRD4 (BDI_K57-E168) was 6780 nM; at BRD4 (BDII_E352-M457), 5.34 µM.

As to `Cc1[nH]c(-c2ccc(-c3cccc(C(=O)NCc4ccco4)c3)cc2)cc1C(N)=O` [Example 106, 5-{3′-[(furan-2-ylmethyl)carbamoyl]biphenyl-4-yl}-2-methyl-1H-pyrrole-3-carboxamide], the inhibition constant Ki at BRD4 (BDI_K57-E168) was 6010 nM; at BRD4 (BDII_E352-M457), 4.87 µM.

Regarding `Cc1[nH]c(-c2ccc(-c3ccc(C(=O)N(C)C)cc3)cc2)cc1C(N)=O` [Example 108, 5-[4′-(dimethylcarbamoyl)biphenyl-4-yl]-2-methyl-1H-pyrrole-3-carboxamide], the inhibitory constant (Ki) at BRD4 (BDI_K57-E168) was 11000 nM; at BRD4 (BDII_E352-M457), 4.49 µM.

Regarding `Cc1[nH]c(-c2ccc(-c3cncnc3)cc2)cc1C(N)=O` [Example 109, 2-methyl-5-[4-(pyrimidin-5-yl)phenyl]-1H-pyrrole-3-carboxamide], the results for the Ki on BRD4 (BDI_K57-E168) and on BRD4 (BDII_E352-M457) were 9240 nM and 4.42 µM, respectively.

`Cc1[nH]c(-c2ccc(-c3ccc(NS(C)(=O)=O)cc3)cc2)cc1C(N)=O` [Example 110, 2-methyl-5-{4′-[(methylsulfonyl)amino]biphenyl-4-yl}-1H-pyrrole-3-carboxamide]: the inhibitory constant (Ki) at BRD4 (BDI_K57-E168) is 4030 nM; on BRD4 (BDII_E352-M457) it was 5.9 µM.

With `Cc1[nH]c(-c2ccc(-c3cnn(Cc4ccccc4)c3)cc2)cc1C(N)=O` [Example 111, 5-[4-(1-benzyl-1H-pyrazol-4-yl)phenyl]-2-methyl-1H-pyrrole-3-carboxamide], the Ki at BRD4 (BDI_K57-E168) was 6900 nM; at BRD4 (BDII_E352-M457) it was 5.74 µM.

For the compound `Cc1n[nH]c(C)c1-c1ccc(-c2cc(C(N)=O)c(C)[nH]2)cc1` [Example 112, 5-[4-(3,5-dimethyl-1H-pyrazol-4-yl)phenyl]-2-methyl-1H-pyrrole-3-carboxamide], the inhibitory constant (Ki) at BRD4 (BDI_K57-E168) was 5430 nM; on BRD4 (BDII_E352-M457) it was 4.31 µM.

For the compound `Cc1[nH]c(-c2ccc(-c3ccc4ncccc4c3)cc2)cc1C(N)=O` [Example 113, 2-methyl-5-[4-(quinolin-6-yl)phenyl]-1H-pyrrole-3-carboxamide], the Ki on BRD4 (BDI_K57-E168) is 4640 nM; on BRD4 (BDII_E352-M457) it was 4.22 µM.

For `Cc1[nH]c(-c2ccc(-c3ccc(C(=O)N4CCN(C)CC4)cc3)cc2)cc1C(N)=O` [Example 114, 2-methyl-5-{4′-[(4-methylpiperazin-1-yl)carbonyl]biphenyl-4-yl}-1H-pyrrole-3-carboxamide], the Ki at BRD4 (BDI_K57-E168) was 3960 nM; at BRD4 (BDII_E352-M457) it was 3.68 µM.

As to `Cc1[nH]c(-c2ccccc2Br)cc1C(N)=O` [Example 115, 5-(2-bromophenyl)-2-methyl-1H-pyrrole-3-carboxamide], the inhibition constant Ki at BRD4 (BDI_K57-E168) was 1850 nM; on BRD4 (BDII_E352-M457), 7.12 µM.

As for `Cc1[nH]c(-c2ccccc2Oc2ccc(Cl)cc2)cc1C(N)=O` [Example 116, 5-[2-(4-chlorophenoxy)phenyl]-2-methyl-1H-pyrrole-3-carboxamide], the Ki at BRD4 (BDI_K57-E168) is 182 nM; at BRD4 (BDII_E352-M457) it was 0.639 µM.

Regarding `Cc1[nH]c(-c2ccccc2Oc2ccc(Oc3ccccc3)cc2)cc1C(N)=O` [Example 122, 2-methyl-5-[2-(4-phenoxyphenoxy)phenyl]-1H-pyrrole-3-carboxamide], the results for the Ki at BRD4 (BDI_K57-E168) and on BRD4 (BDII_E352-M457) were 1960 nM and 7.04 µM, respectively.

Turning to `Cc1[nH]c(-c2ccccc2Oc2ccc(C#N)cc2)cc1C(N)=O` [Example 123, 5-[2-(4-cyanophenoxy)phenyl]-2-methyl-1H-pyrrole-3-carboxamide], the values for the inhibition constant Ki on BRD4 (BDI_K57-E168) and on BRD4 (BDII_E352-M457) were 1970 nM and 12.6 µM, respectively.

For `Cc1[nH]c(-c2ccccc2Oc2ccc(C3CCCC3)cc2)cc1C(N)=O` [Example 124, 5-[2-(4-cyclopentylphenoxy)phenyl]-2-methyl-1H-pyrrole-3-carboxamide], the results for the inhibition constant (Ki) at BRD4 (BDI_K57-E168) and on BRD4 (BDII_E352-M457) were 4600 nM and 13.1 µM, respectively.

Turning to `Cc1[nH]c(-c2ccccc2Oc2cccc3c2CCCC3)cc1C(N)=O` [Example 136, 2-methyl-5-[2-(5,6,7,8-tetrahydronaphthalen-1-yloxy)phenyl]-1H-pyrrole-3-carboxamide], the inhibitory constant (Ki) at BRD4 (BDI_K57-E168) is 564 nM; on BRD4 (BDII_E352-M457), 1.98 µM.

`Cc1[nH]c(-c2ccccc2Oc2ccccc2Cc2ccccc2)cc1C(N)=O` [Example 138, 5-[2-(2-benzylphenoxy)phenyl]-2-methyl-1H-pyrrole-3-carboxamide]: the Ki at BRD4 (BDI_K57-E168) is 1480 nM; at BRD4 (BDII_E352-M457) it was 1.82 µM.

Regarding `Cc1[nH]c(-c2ccccc2Oc2cccc3ccccc23)cc1C(N)=O` [Example 140, 2-methyl-5-[2-(naphthalen-1-yloxy)phenyl]-1H-pyrrole-3-carboxamide], the Ki at BRD4 (BDI_K57-E168) was 607 nM; at BRD4 (BDII_E352-M457) it was 1.3 µM.

Regarding `CCc1ccc(Oc2ccccc2-c2cc(C(N)=O)c(C)[nH]2)cc1` [Example 143, 5-[2-(4-ethylphenoxy)phenyl]-2-methyl-1H-pyrrole-3-carboxamide], the inhibition constant (Ki) at BRD4 (BDI_K57-E168) is 259 nM; on BRD4 (BDII_E352-M457) it was 2.11 µM.

Regarding `Cc1[nH]c(-c2ccccc2Oc2ccc3c(c2)CCC3)cc1C(N)=O` [Example 144, 5-[2-(2,3-dihydro-1H-inden-5-yloxy)phenyl]-2-methyl-1H-pyrrole-3-carboxamide], the inhibitory constant (Ki) at BRD4 (BDI_K57-E168) was 446 nM; at BRD4 (BDII_E352-M457), 1.23 µM.

As for `Cc1[nH]c(-c2c(F)cccc2F)cc1C(N)=O` [Example 147, 5-(2,6-difluorophenyl)-2-methyl-1H-pyrrole-3-carboxamide], the inhibition constant Ki at BRD4 (BDI_K57-E168) is 11900 nM; at BRD4 (BDII_E352-M457) it was 12.2 µM.

Take `Cc1[nH]c(-c2cccc(-c3ccccc3)c2)cc1C(N)=O` [Example 150, 5-(biphenyl-3-yl)-2-methyl-1H-pyrrole-3-carboxamide]: the values for the Ki on BRD4 (BDI_K57-E168) and at BRD4 (BDII_E352-M457) were 10700 nM and 9.69 µM, respectively.

Take `Cc1[nH]c(-c2cccc(-c3ccsc3)c2)cc1C(N)=O` [Example 152, 2-methyl-5-[3-(thiophen-3-yl)phenyl]-1H-pyrrole-3-carboxamide]: the inhibitory constant (Ki) on BRD4 (BDI_K57-E168) is 4700 nM; at BRD4 (BDII_E352-M457), 7.87 µM.

For the compound `CC(=O)c1ccccc1-c1cccc(-c2cc(C(N)=O)c(C)[nH]2)c1` [Example 153, 5-(2′-acetylbiphenyl-3-yl)-2-methyl-1H-pyrrole-3-carboxamide], the Ki is 2220 nM at BRD4 (BDI_K57-E168) and 7.32 µM on BRD4 (BDII_E352-M457).

Regarding `Cc1[nH]c(-c2cccc(-c3cccnc3)c2)cc1C(N)=O` [Example 154, 2-methyl-5-[3-(pyridin-3-yl)phenyl]-1H-pyrrole-3-carboxamide], the inhibition constant Ki at BRD4 (BDI_K57-E168) was 2990 nM; at BRD4 (BDII_E352-M457), 7.12 µM.

For the compound `Cc1[nH]c(-c2cccc(-c3cn[nH]c3)c2)cc1C(N)=O` [Example 155, 2-methyl-5-[3-(1H-pyrazol-4-yl)phenyl]-1H-pyrrole-3-carboxamide], the results for the inhibition constant Ki on BRD4 (BDI_K57-E168) and on BRD4 (BDII_E352-M457) were 2570 nM and 5.46 µM, respectively.

In the case of `Cc1[nH]c(-c2cccc(-c3ccc4c(ccn4C)c3)c2)cc1C(N)=O` [Example 156, 2-methyl-5-[3-(1-methyl-1H-indol-5-yl)phenyl]-1H-pyrrole-3-carboxamide], the inhibition constant Ki at BRD4 (BDI_K57-E168) was 8490 nM; at BRD4 (BDII_E352-M457), 21.9 µM.

As for `Cc1[nH]c(-c2cc(N)ccc2Oc2ccccc2)cc1C(N)=O` [Example 161, 5-(5-amino-2-phenoxyphenyl)-2-methyl-1H-pyrrole-3-carboxamide], the figures for the inhibitory constant (Ki) on BRD4 (BDI_K57-E168) and at BRD4 (BDII_E352-M457) were 109 nM and 0.658 µM, respectively.

As for `Cc1[nH]c(-c2cc(NS(C)(=O)=O)ccc2Oc2ccccc2)cc1C(N)=O` [Example 162, 2-methyl-5-{5-[(methylsulfonyl)amino]-2-phenoxyphenyl}-1H-pyrrole-3-carboxamide], the figures for the inhibition constant Ki on BRD4 (BDI_K57-E168) and at BRD4 (BDII_E352-M457) were 59.1 nM and 0.754 µM, respectively.

On to `Cc1[nH]c(-c2cccc3[nH]cnc23)cc1C(N)=O` [Example 163, 5-(1H-benzimidazol-4-yl)-2-methyl-1H-pyrrole-3-carboxamide], for which the inhibitory constant (Ki) on BRD4 (BDI_K57-E168) is 912 nM; at BRD4 (BDII_E352-M457), 2.81 µM.

For `Cc1[nH]c(-c2cccc3cc[nH]c23)cc1C(N)=O` [Example 164, 5-(1H-indol-7-yl)-2-methyl-1H-pyrrole-3-carboxamide], the Ki at BRD4 (BDI_K57-E168) is 1000 nM; at BRD4 (BDII_E352-M457), 2.03 µM.

`CCOC(=O)Cc1ccc(OCc2ccccc2)c(-c2cc(C(N)=O)c(C)[nH]2)c1` [Example 165, ethyl [4-(benzyloxy)-3-(4-carbamoyl-5-methyl-1H-pyrrol-2-yl)phenyl]acetate]: the inhibition constant (Ki) on BRD4 (BDI_K57-E168) is 595 nM; at BRD4 (BDII_E352-M457) it was 7.49 µM.

Turning to `Cc1[nH]c(-c2cc(CC(=O)O)ccc2OCc2ccccc2)cc1C(N)=O` [Example 166, [4-(benzyloxy)-3-(4-carbamoyl-5-methyl-1H-pyrrol-2-yl)phenyl]acetic acid], the Ki was 630 nM at BRD4 (BDI_K57-E168) and 10.5 µM on BRD4 (BDII_E352-M457).
